This test has as its target Solute carrier family 2, facilitated glucose transporter member 1 (Homo sapiens) (UniProt P11166). As to the kind of experiment: SLC2A1-mediated glucose transport in cells – cell-based, flow cytometry, glucose FRET sensor, HEK293 JumpIN TRex, wild type, dose response (AID 1794830). As to conditions: HEK293 JumpIN SLC2A1-OE. For orientation: In flow cytometry, cells or beads pass a laser one at a time.

The structures appear in SMILES notation. Results filed as inconclusive are left out.

Sequence of Solute carrier family 2, facilitated glucose transporter member 1 (Homo sapiens) (P11166 whole entry, looked up): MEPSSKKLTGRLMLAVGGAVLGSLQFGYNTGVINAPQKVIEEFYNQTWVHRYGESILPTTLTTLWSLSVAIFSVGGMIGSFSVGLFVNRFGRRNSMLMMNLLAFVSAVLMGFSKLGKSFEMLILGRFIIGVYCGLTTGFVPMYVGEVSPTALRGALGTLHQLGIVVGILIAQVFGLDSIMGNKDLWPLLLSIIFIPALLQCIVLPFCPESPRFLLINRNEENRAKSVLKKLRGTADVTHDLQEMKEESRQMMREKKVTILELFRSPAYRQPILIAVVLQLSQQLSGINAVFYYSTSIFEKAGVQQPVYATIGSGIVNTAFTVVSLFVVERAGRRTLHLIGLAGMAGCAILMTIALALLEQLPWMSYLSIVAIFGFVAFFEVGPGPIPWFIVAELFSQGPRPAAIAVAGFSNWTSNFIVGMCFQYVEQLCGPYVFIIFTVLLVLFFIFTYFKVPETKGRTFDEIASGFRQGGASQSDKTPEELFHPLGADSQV

As for `OC[C@H]1OC(O)[C@H](O)[C@@H](O)[C@@H]1O` (stereo partly specified), the EC50 (substrate transport, FRET signal increase) was 527 µM.

These data come from PubChem BioAssay AID1794830.
